# Source: patent publication US7879852B2, “Melanocortin receptor agonists” (LG Life Sciences Ltd., priority 2006, dated 2011)
# Target: T1, human melanocortin receptor 4 (MC4R) (Homo sapiens, UniProt P32245)
# T1 construct: expressed in transfected cells; grown with 200 ug/ml Geneticin
# Experiment: Luciferase assay
# Format: cell-based
# Settings: agonistic activity at MC4R (Table 18); patent does not state whether luciferase or cAMP assay
# Experimental: Cell lines expressing human melanocortin receptor 4 (MC4R) were dissociated from tissue culture dishes by rinsing with Ca^++, Mg^++ free DPBS, treated with 1× Trypsin/EDTA solution for 1 min at 37° C., and resuspended with DMRM (GIBCO-BRL) supplemented with 10% FBS. The cells were counted and diluted with DMEM supplemented with 10% FBS and 200 ug/ml of Geneticin to […]. 90 ul of cell suspension was plated onto each well of 96-well black and clear bottom culture plates (Costar). After the incubation for 24 h in the atmosphere of 6% CO2 at 37° C., 10 ul of NDP-MSH and test compounds diluted in DMSO were added to each well. The final DMSO concentration was 1%. After 4 h of incubation in the atmosphere of 6% CO2 at 37° C., 50 ul of Bright-Glo (Promega) was added to each well. Luciferase activity was measured by using L-Max luminometer (Molecular Device). The amount of luciferase activity induced by treatment with NDP-MSH was defined as 100% to obtain the relative efficacy of test compounds. The EC0.5 MSH was defined as the concentration of test compounds that results in half maximal activity of NDP-MSH. The EC50 was defined as the concentration of test compound that results in half maximal activity of its own.
# T1 sequence (P32245 whole entry): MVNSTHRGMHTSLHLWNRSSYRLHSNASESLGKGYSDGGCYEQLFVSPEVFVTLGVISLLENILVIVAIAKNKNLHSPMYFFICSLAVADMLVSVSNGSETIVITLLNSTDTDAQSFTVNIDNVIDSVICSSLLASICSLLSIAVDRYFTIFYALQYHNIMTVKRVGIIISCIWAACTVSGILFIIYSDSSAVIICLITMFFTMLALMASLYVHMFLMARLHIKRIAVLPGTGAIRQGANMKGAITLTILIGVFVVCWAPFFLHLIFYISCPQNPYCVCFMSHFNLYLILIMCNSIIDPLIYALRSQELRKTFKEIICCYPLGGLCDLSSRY
row,Molecule,EC50
1,CC1(C)CCC(N(C(=O)C(C)(C)C)[C@H]2C[C@@H](C(=O)Nc3ccccc3)N(C(=O)[C@@H]3CN(C(C)(C)C)C[C@H]3c3ccc(Cl)cc3)C2)CC1 [Example A99],69 nM
2,CC1CCC(N(C(=O)C(C)(C)C)C2CC(C(N)=S)N(C(=O)C3CN(C(C)(C)C)CC3c3ccc(F)cc3F)C2)CC1 (stereo not shown) [Example B28],14 nM
3,"CC1(C)CCC(N(C(=O)C(C)(C)/C=N/O)[C@H]2CCN(C(=O)[C@@H]3CN(C(C)(C)C)C[C@H]3c3ccc(Cl)cc3)C2)CC1 [Example C3, (3E)-N-[(3S)-1-{[(3S,4R)-1-tert-butyl-4-(4-chlorophenyl)pyrrolidine-3-yl]carbonyl}pyrrolidine-3-yl]-N-(4,4-dimethylcyclohexyl)-3-(hydroxyimino)-2,2-dimethylpropaneamide]",15 nM
4,"CCN(C)C(=O)[C@@H]1C[C@H](N(C(=O)C(C)(C)CS)C2CCC(C)(C)CC2)CN1C(=O)[C@@H]1CN(C(C)(C)C)C[C@H]1c1ccc(F)cc1F [Example C14, (4S)-1-{[(3S,4R)-1-tert-butyl-4-(2,4-difluorophenyl)pyrrolidine-3-yl]carbonyl}-4-[(4,4-dimethylcyclohexyl)(3-mercapto-2,2-dimethylpropanoyl)amino]-N-ethyl-N-methyl-L-prolineamide]",66 nM
5,CC1(C)CCC(N(C(=O)C(C)(C)CO)[C@H]2CCN(C(=O)[C@@H]3CN(C(N)=O)C[C@H]3c3ccc(Cl)cc3)C2)CC1 [Example E2-2],7 nM
6,"CN1C[C@@H](C(=O)N2C[C@@H](N(C(=O)C(C)(C)C)[C@H]3CC[C@@H](C)CC3)C[C@H]2C(N)=O)[C@H](c2ccc(Cl)cc2)C1 [Example A7, (4S)-1-{[(3S,4R)-4-(4-Chlorophenyl)-1-methylpyrrolidine-3-yl]carbonyl}-4-[(2,2-dimethylpropanoyl)(cis-4-methylcyclohexyl)amino]-L-prolineamide]",24 nM
7,"CCN(C)C(=O)[C@@H]1C[C@H](N(C(=O)C(C)(C)COC)C2CCC(F)(F)CC2)CN1C(=O)C1CN(C(C)(C)C)C[C@H]1c1ccc(Cl)cc1 (stereo partly drawn) [Example C9, N-[(3S)-1-{[(3S,4R)-1-tert-butyl-4-(4-chlorophenyl)pyrrolidine-3-yl]carbonyl}pyrrolidine-3-yl]-N-[(4,4-difluorocyclohexyl)(3-methoxy-2,2-dimethylpropanoyl)amino]-N-ethyl-N-methyl-L-prolineamide]",41 nM
8,CCN(C)C(=O)[C@@H]1C[C@H](N(C(=O)C(C)(C)C)C2CCC(F)(F)CC2)CN1C(=O)[C@@H]1CN(C(C)(C)C)C[C@H]1c1ccc(Cl)cc1 [Example A75],79 nM
9,"COCC(C)(C)C(=O)N(C1CCC(C)(C)CC1)[C@H]1CCN(C(=O)[C@@H]2CN(C(C)(C)C)C[C@H]2c2ccc(Cl)cc2)C1 [Example C2, N-[(3S)-1-{[(3S,4R)-1-tert-butyl-4-(4-chlorophenyl)pyrrolidine-3-yl]carbonyl}pyrrolidine-3-yl]-N-(4,4-dimethylcyclohexyl)-3-methoxy-2,2-dimethylpropaneamide]",11 nM
10,"CCNC(=O)[C@@H]1C[C@H](N(C(=O)C(C)(C)C)C2CCC(F)(F)CC2)CN1C(=O)[C@@H]1CN(C(C)(C)C)C[C@H]1c1ccc(Cl)cc1 [Example A6, (4S)-1-{[(3S,4R)-1-tert-butyl-4-(4-chlorophenyl)pyrrolidine-3-yl]carbonyl}-4-[(4,4-difluorocyclohexyl)(2,2-dimethylpropanoyl)amino]-N-ethyl-L-prolineamide]",24 nM
11,COCC(C)(C)C(=O)N(C1CCC(F)(F)CC1)[C@H]1C[C@@H](C(=O)N(C)C)N(C(=O)[C@@H]2CN(C(C)(C)C)C[C@H]2c2ccc(Cl)cc2)C1 [Example C24],22 nM
12,"CC(=O)C(C)(C)C(=O)N(C1CCC(C)(C)CC1)[C@H]1CCN(C(=O)[C@@H]2CN(C(C)(C)C)C[C@H]2c2ccc(Cl)cc2)C1 [Example C5, N-[(3S)-1-{[(3S,4R)-1-tertbutyl-4-(4-chlorophenyl)pyrrolidine-3-yl]carbonyl}pyrrolidine-3-yl]-N-(4,4-dimethylcyclohexyl)-2,2-dimethyl-3-oxobutaneamide]",6 nM
13,CC(C)C(=O)N(C1CCC(C)(C)CC1)C1CC(C=NO)N(C(=O)C2CN(C(C)(C)C)CC2c2ccc(F)cc2F)C1 (stereo not shown) [Example B33],65 nM
14,"CN(C)C(=O)[C@@H]1C[C@H](N(C(=O)C(C)(C)C)C2CCC(C)(C)CC2)CN1C(=O)[C@@H]1CN(C(C)(C)C)C[C@H]1c1ccc(F)cc1F [Example A1, (4S)-1-{[(3S,4R)-1-tert-butyl-4-(2,4-difluorophenyl)pyrrolidine-3-yl]carbonyl}-4-[(4,4-dimethylcyclohexyl)(2,2-dimethylpropanoyl)amino]-N,N-dimethyl-L-prolineamide]",13 nM
15,CC1CCC(N(C(=O)C2=CCOC2)C2CCN(C(=O)C3CNCC3c3ccc(Cl)cc3)C2)CC1 (stereo not shown) [Example E1-23],21 nM
16,"CC1(C)CCC(N(C(=O)C(C)(C)C(N)=O)[C@H]2CCN(C(=O)C3CN(C(C)(C)C)C[C@H]3c3ccc(Cl)cc3)C2)CC1 (stereo partly drawn) [Example C1, N-[(3S)-1-{[(3S,4R)-1-tert-butyl-4-(4-chlorophenyl)pyrrolidine-3-yl]carbonyl}pyrrolidine-3-yl]-N-(4,4-dimethylcyclohexyl)-2,2-dimethylmaloneamide]",38 nM
17,"CC1(C)CCC(N(C(=O)C(C)(C)C)[C@H]2CCN(C(=O)[C@@H]3CN(C(C)(C)C)C[C@H]3c3ccc(Cl)cc3)C2)CC1 [Example A9, N-[(3S,4R)-1-{[(3S,4R)-1-T-butyl-4-(4-chlorophenyl)pyrrolidine-3-yl]carbonyl}pyrrolidine-3-yl]-N-(4,4-dimethylcyclohexyl)-2,2-dimethylpropaneamide]",45 nM
18,"CN(C)C(=O)[C@@H]1C[C@H](N(C(=O)C(C)(C)C)c2ccc(F)cc2F)CN1C(=O)[C@@H]1CN(C(C)(C)C)C[C@H]1c1ccc(Cl)cc1 [Example D1, (4S)-1-{[(3S,4R)-1-tert-butyl-4-(4-chlorophenyl)pyrrolidine-3-yl]carbonyl}-4-[(2,4-difluorophenyl)(2,2-dimethylpropanoyl)amino]-N,N-dimethyl-L-prolineamide]",47 nM
19,"(4S)-1-[(3S,4R)-1-tert-butyl-4-(4-chlorophenyl)pyrrolidine-3-yl]carbonyl)-4-{(4,4-dimethylcyclohexyl)[(2S)-tetrahydrofuran-2-ylcarbonyl]amino}-N,N-ethylmethyl-L-prolineamide [Example A2]",16 nM
20,"S-(3-{[(3S,5S)-1-{[(3S,4R)-1-tert-butyl-4-(2,4-difluorophenyl)pyrrolidine-3-yl]carbonyl}-5-{[ethyl(methyl)amino]carbonyl}pyrrolidine-3-yl](4,4-dimethylcyclohexyl)amino}-2,2-dimethyl-3-oxopropyl)ethanethioate [Example C13]",40 nM
21,CC1CCC(N(C(=O)c2ccoc2)C2CCN(C(=O)C3CNCC3c3ccc(Cl)cc3)C2)CC1 (stereo not shown) [Example E1-14],23 nM
22,CC(=O)N(C1CCC(C)(C)CC1)[C@H]1C[C@@H](C(=O)N2CCOCC2)N(C(=O)[C@@H]2CN(C(C)(C)C)C[C@H]2c2ccc(Cl)cc2)C1 [Example A96],38 nM
